Tests used:
[1] = system: CCL11 (eotaxin); test: OVA model: CCL11 (eotaxin) immunohistochemistry of lung sections; type: in vivo, Balb/c mice; conditions: OVA-challenged mice; 1 2 mg/kg, beclomethasone 1 mg/kg
Protocol: (§1) • (1) Wash Buffer: T-PBS (0.1M, pH 7.4, 0.05% Tween 20); • (2) Blocking/Incubation Buffer: 1% bovine serum albumin, 0.1% Cold Fish Skin Gelatin, 0.5% Triton® X-100, 0.1 M PBS (pH 7.4); • (3) Peroxidase Blocking Solution (3% H2O2 in water); • (4) EDTA Antigen Retrieval Buffer (1 mM EDTA, 0.05% Tween 20, pH 8.0); • (5) Primary antibodies: • Rabbit anti-mouse IL-5 (Cat. #ABIN446956; Antibodies-Online GmbH, Schloss-Rahe-Str. 1552072 Aachen, Germany); • Rat anti-mouse CCL11 (Cat. #MAB420; R&D Systems, Inc., 614 McKinley Place Nebr., Minneapolis, Minn. 55413); • (6) Secondary antibodies: • Goat anti-rabbit IgG (H+L)-HRP (cat. #31466; Thermo Fisher Scientific, 168 Third Avenue Waltham, Mass. USA 02451); • Goat anti-rat IgG (H+L)—HRP (cat. #62-9520; Thermo Fisher Scientific, 168 Third Avenue Waltham, Mass. USA 02451); • (7) Pierce DAB Substrate Kit (DAB (10×), 25 mL; Stable Peroxide Buffer, 250 mL) (Catalog #34002; Thermo Fisher Scientific, 168 Third Avenue Waltham, Mass. USA 02451); • (8) Hematoxylin Counterstain (Cat #GHS216; Sigma-Aldrich Chemie GmbH, Eschenstrasse 5, 82024 Taufkirchen, Germany); • (9) Vitro-Clud 500 Mounting Medium (Catalog #A20500; Deltalab; Plz. Verneda 1, Pol Ind La Llana 08191 Rubí Barcelona Spain). […]

[2] = system: IL-5; test: OVA model: IL-5 immunohistochemistry of lung sections; type: in vivo, Balb/c mice; conditions: OVA-sensitised mice; both compound 1 groups 2 mg/kg, beclomethasone 1 mg/kg
Protocol: To investigate the treatment effect of compound 1, immunohistology from serial lung sections was performed 2 days after i.n. challenge in experimental mice that were treated with the compound 1 or beclomethasone as standard antiinflammatory and anti-asthmatic API.
as §1, with “Mass.” for “Mass. USA 02451); • (8) Hematoxylin Counterstain (Cat #GHS216; Sigma-Aldrich Chemie GmbH, Eschenstrasse 5, 82024 Taufkirchen, Germany); • (9) Vitro-Clud 500 Mounting Medium (Catalog #A20500; Deltalab; Plz. Verneda 1, Pol Ind La Llana 08191 Rubí Barcelona Spain).”

| Structure (SMILES) | CCL11 (eotaxin) levels in lung sections [1] | IL-5 expression in lung sections [2] |
| --- | --- | --- |
| O=c1oc2cc(O)cc(O)c2c(O)c1-c1coc2c1c(=O)oc1cc(O)cc(O)c12 [Compound 1, 7,9-dihydroxy-3-(4,5,7-trihydroxy-2-oxo-2H-chromene-3-yl)-4H-furo[3,2-c]chromen-4-one] | reduced to background | no IL-5 expression |
| C[C@H]1C[C@H]2[C@@H]3CCC4=CC(=O)C=C[C@]4(C)[C@@]3(Cl)[C@@H](O)C[C@]2(C)[C@@]1(O)C(=O)CO [beclomethasone, reference compound] | reduced to background | moderate result |

From patent US20210113522A1, “COUMARIN DERIVATIVE AS ANTI-ASTHMATIC AGENT, PHARMACEUTICAL COMPOSITION THEREOF, ITS PREPARATION AND USE” (I-NOVA MEDICINSKA ISTRAZIVANJA D.O.O., priority 2017, published 2021)
